Measurements published in PubChem BioAssay (NCI).
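Five concentrations, 48 hours, 96-well plates. TGI marks complete inhibition of growth.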

Tests used:
Experiment in all cases: NCI-60 cell line screen, 48 h
CCRF-CEM leukemia = tested on: CCRF-CEM leukemia
HL-60(TB) leukemia = tested on: HL-60(TB) leukemia
K-562 leukemia = tested on: K-562 leukemia
NCI-H522 lung = tested on: NCI-H522 lung
786-0 renal = tested on: 786-0 renal
A549 NSCLC = tested on: A549 NSCLC
ACHN renal = tested on: ACHN renal
BT-549 breast = tested on: BT-549 breast
CAKI-1 renal = tested on: CAKI-1 renal
COLO 205 colon = tested on: COLO 205 colon
DU-145 prostate = tested on: DU-145 prostate
EKVX NSCLC = tested on: EKVX NSCLC
HCC-2998 colon = tested on: HCC-2998 colon
HCT-116 colon = tested on: HCT-116 colon
HCT-15 colon = tested on: HCT-15 colon
HOP-62 NSCLC = tested on: HOP-62 NSCLC
HOP-92 NSCLC = tested on: HOP-92 NSCLC
HT29 colon = tested on: HT29 colon
IGROV1 ovarian = tested on: IGROV1 ovarian
KM12 colon = tested on: KM12 colon
LOX IMVI melanoma = tested on: LOX IMVI melanoma
M14 melanoma = tested on: M14 melanoma
MALME-3M melanoma = tested on: MALME-3M melanoma
MCF7 breast = tested on: MCF7 breast
MDA-MB-231 breast = tested on: MDA-MB-231 breast
MDA-MB-435 = tested on: MDA-MB-435
MOLT-4 leukemia = tested on: MOLT-4 leukemia
NCI-H226 lung = tested on: NCI-H226 lung
NCI-H23 lung = tested on: NCI-H23 lung
NCI-H460 lung = tested on: NCI-H460 lung
NCI/ADR-RES ovarian = tested on: NCI/ADR-RES ovarian
OVCAR-4 ovarian = tested on: OVCAR-4 ovarian
OVCAR-5 ovarian = tested on: OVCAR-5 ovarian
OVCAR-8 ovarian = tested on: OVCAR-8 ovarian
PC-3 prostate = tested on: PC-3 prostate
RPMI-8226 leukemia = tested on: RPMI-8226 leukemia
SF-268 CNS = tested on: SF-268 CNS
SF-539 CNS = tested on: SF-539 CNS
SK-MEL-2 melanoma = tested on: SK-MEL-2 melanoma
SK-MEL-28 melanoma = tested on: SK-MEL-28 melanoma
SK-MEL-5 melanoma = tested on: SK-MEL-5 melanoma
SNB-19 CNS = tested on: SNB-19 CNS
SR leukemia = tested on: SR leukemia
SW-620 colon = tested on: SW-620 colon
TK-10 renal = tested on: TK-10 renal
U251 CNS = tested on: U251 CNS
UACC-257 melanoma = tested on: UACC-257 melanoma
UACC-62 melanoma = tested on: UACC-62 melanoma
UO-31 renal = tested on: UO-31 renal

## CC(C)(Oc1ccc(/C=C/C(=O)c2ccccc2)cc1)C(=O)Nc1c(Cl)cccc1Cl
CCRF-CEM leukemia
  TGI: > 31.6 µM
HL-60(TB) leukemia
  TGI: 23.6 µM
K-562 leukemia
  TGI: > 100 µM
NCI-H522 lung
  TGI: 9.86 µM

## Nc1c(C(=O)c2ccccc2)nnc2ccccc12
786-0 renal
  TGI: > 100 µM
A549 NSCLC
  TGI: > 100 µM
ACHN renal
  TGI: 65.4 µM
BT-549 breast
  TGI: 72.7 µM
CAKI-1 renal
  TGI: > 100 µM
COLO 205 colon
  TGI: 36 µM
DU-145 prostate
  TGI: 69.9 µM
EKVX NSCLC
  TGI: > 100 µM
HCC-2998 colon
  TGI: 54.4 µM
HCT-116 colon
  TGI: 71.6 µM
HCT-15 colon
  TGI: > 100 µM
HOP-62 NSCLC
  TGI: > 100 µM
HOP-92 NSCLC
  TGI: 48.7 µM
HT29 colon
  TGI: > 100 µM
IGROV1 ovarian
  TGI: > 100 µM
K-562 leukemia
  TGI: > 100 µM
KM12 colon
  TGI: 67.7 µM
LOX IMVI melanoma
  TGI: > 100 µM
M14 melanoma
  TGI: > 100 µM
MALME-3M melanoma
  TGI: 79.1 µM
MCF7 breast
  TGI: 62.6 µM
MDA-MB-231 breast
  TGI: 53.3 µM
MDA-MB-435
  TGI: 60.3 µM
MOLT-4 leukemia
  TGI: > 100 µM
NCI-H226 lung
  TGI: > 100 µM
NCI-H23 lung
  TGI: > 100 µM
NCI-H460 lung
  TGI: 67.1 µM
NCI/ADR-RES ovarian
  TGI: 64.6 µM
OVCAR-4 ovarian
  TGI: > 100 µM
OVCAR-5 ovarian
  TGI: > 100 µM
OVCAR-8 ovarian
  TGI: > 100 µM
PC-3 prostate
  TGI: 59.6 µM
RPMI-8226 leukemia
  TGI: > 100 µM
SF-268 CNS
  TGI: > 100 µM
SF-539 CNS
  TGI: 87.3 µM
SK-MEL-2 melanoma
  TGI: 38.3 µM
SK-MEL-28 melanoma
  TGI: > 100 µM
SK-MEL-5 melanoma
  TGI: 32.7 µM
SNB-19 CNS
  TGI: > 100 µM
SR leukemia
  TGI: > 100 µM
SW-620 colon
  TGI: > 100 µM
TK-10 renal
  TGI: 54.7 µM
U251 CNS
  TGI: > 100 µM
UACC-257 melanoma
  TGI: 90.8 µM
UACC-62 melanoma
  TGI: 45 µM
UO-31 renal
  TGI: > 100 µM
